What was measured:
[1] = Phase I dose escalation trial of oral AP23573: safety, tolerability and maximum tolerated dose; assay type: in vivo, patients
Source text: Background: In phase I clinical trials with an intravenous (IV) formulation of the mTOR inhibitor, AP23573, the drug was well-tolerated and active in a broad range of cancers. This trial is undertaken to assess the safety, tolerability and maximum tolerated dose (MTD) of an orally administered dosage form of AP23573. Secondary objectives include characterization of the pharmacokinetic (PK) and pharmacodynamic (PD) profiles of AP23573, as well as antitumor activity.
(§1) Methods: Eligible patients (in cohorts of at least 3 patients) initially are randomized at the same flat, fixed starting dose of 20 mg/day into one of three 28-day dosing schedules, i.e. once daily continuous dosing for 4 days every week (QD×4), 21 of 28 days (QD×21), or all 28 days (QD×28). The subsequent dose level is determined based on review of safety and tolerability during Cycle 1 and enrollment for each schedule proceeds independently. Antitumor activity is assessed every 2 cycles. Whole blood is collected for PK assessment and peripheral blood mononuclear cells collected for PD assessment of the levels of phosphorylated 4E-BP1, a downstream target of mTOR.

[2] = Phase I trial of oral AP23573: whole blood PK assessment; assay type: in vivo, patients; settings: three schedules, 20 mg/day, Day 1 of Cycle 1, preliminary PK analysis
Method: as §1

[3] = test system: phosphorylated 4E-BP1, a downstream target of mTOR; experiment: Phase I trial of oral AP23573: PD assessment of phosphorylated 4E-BP1 levels in peripheral blood mononuclear cells; assay type: in vivo, patients
Method: as §1

[4] = test system: refractory or advanced malignancies; experiment: Phase I trial of oral AP23573: antitumor activity assessed every 2 cycles; assay type: in vivo, patients
Method: as §1

sarcoma and other tumors = experiment: Additional clinical studies of oral AP23573 on QD×5 schedule: anti-tumor activity (Clinical Benefit Response); assay type: in vivo, patients; settings: QD×5 schedules
Method: (§2) Additional clinical studies of AP23573 were conducted using a QD×5 dosing schedule for the delivery of 30, 40 or 50 mg of AP23573/day. A set of patients receiving the 30 mg and 50 mg doses were also given a loading dose on the first day of each week, which doubled the dose that day to 60 and 100 mg, respectively.
(§3) Methods: In a Phase 1/2a trial of single-agent oral AP23573, 17 patients, 9 of whom are sarcoma patients, were studied at the chosen dose and schedule (40 mg QD×5). In addition, of 7 patients who began dosing at 50 mg QD×5, 4 patients (2 of whom are sarcoma patients) underwent dose reduction to 40 mg. Twenty-one patients, therefore, received 40 mg QD×5, of whom 11 are sarcoma patients.
(§4) In another QD×5 study in which the dose on day 1 of each week was doubled (to comprise a loading dose), 7 patients (6 sarcoma patients) received doses of 60, 30, 30, 30 and 30 mg over each week (i.e., 30 mg QD×5, with the dose on day 1 doubled). Five other patients (2 sarcoma patients) received 50 mg QD×5, with the dose on day 1 doubled to 100 mg.
(§5) Overall, 36 patients were dosed on a QD×5 schedule, of whom 12 received loading doses on day 1 of each week.

[5] = Additional clinical studies of oral AP23573 on QD×5 schedule: tolerability; assay type: in vivo
Method: as §2, §3, §4, §5

With `CO[C@H]1C[C@@H]2CC[C@@H](C)[C@@](O)(O2)C(=O)C(=O)N2CCCC[C@H]2C(=O)O[C@H]([C@H](C)C[C@@H]2CC[C@@H](OP(C)(C)=O)[C@H](OC)C2)CC(=O)[C@H](C)/C=C(\C)[C@@H](O)[C@@H](OC)C(=O)[C@H](C)C[C@H](C)/C=C/C=C/C=C/1C` [AP23573] the “dose-limiting toxicity (DLT)” value ([1]; QD×4 20 mg/day cohort) was “no dose-limiting toxicity (DLT) was reported”, the “dose-limiting toxicity (DLT)” value ([1]; QD×4 30 mg/day schedule) was “no DLTs” and the side effects ([1]; QD×4 60 and 70 mg/day cohort) was “side effects were reported”. For the same compound, the “maximum tolerated daily dose” value ([1]; QD×4 schedule) was 50 mg/day, the “dose-limiting toxicity (DLT)” value ([1]; QD×21 cohort, 20 mg/day) was “severe stomatitis and fatigue” and the “maximum tolerated daily dose” value ([1]; QD×21 schedule) was 10 mg/day. For the same compound, the “dose-limiting toxicity (DLT)” value ([1]; QD×28 cohort, 20 mg/day) was “severe stomatitis and fatigue”, the “maximum tolerated daily dose” value ([1]; QD×28 schedule) was 15 mg/day and the “severity of adverse events related to AP23573 during Cycle 1” value ([1]; three schedules) was “mild or moderate in severity, reversible”. The “adverse events related to AP23573 during Cycle 1 in at least 2 patients” value ([1]; three schedules, 10 to 30 mg/day) was “mucositis, fatigue, rash, diarrhea, anorexia, and nausea”, the Cmax range [2] was 77 to 163 ng/mL and the “median Cmax” value [2] was 98.5 ng/mL. The “reduction of phosphorylated 4E-BP1 levels” value ([3]; 1 day after dosing) was > 80%, the “phosphorylated 4E-BP1 levels during the dosing period” value ([3]; during the dosing period) was “remain reduced during the dosing period” and the “antitumor activity (decrease)” value ([4]; patient with metastatic breast carcinoma, qd×4, 20 mg/day cohort) was 22%. For the same compound, the “antitumor activity (decrease)” value ([4]; patient with metastatic renal cell carcinoma, qd×21, 20 mg/day cohort) was 21%, the disease status ([4]; patient with soft tissue sarcoma, QD×4, 20 mg/day cohort, after 2 cycles) was “stable disease” and the “evaluable sarcoma patients that were CBRs” value (sarcoma and other tumors) was 43%. For the same compound, the “patients achieving a Clinical Benefit Response (CBR)” value (sarcoma and other tumors; of the 26 evaluable patients) was “Seven”, the side-effects ([5]; 40 mg QD×5) was “generally mild or moderate and manageable” and the “tolerability of dose level” value ([5]; 50 mg QD×5 with the dose on day 1 doubled to 100 mg) was “exceed the maximum tolerated dose”.
